Results from patent EP0359505A1, “Dopamine-beta hydroxylase inhibitors” (SMITHKLINE BEECHAM CORPORATION, priority 1988, dated 1990).

What was measured:
[1] = see Teresawa et al.; cited from earlier work
[2] = tested on: spontaneously hypertensive rats; assay: mean arterial blood pressure in spontaneously hypertensive rats, indwelling cannulae in the tail arteries; assay type: in vivo; settings: 100 mg/kg orally
Experimental: Further, spontaneously hypertensive rats were treated with 3-mercapto-4-benzyl-5-(4-pyridyl)-1,2,4-triazole at a dose of 100 mg/kg orally and mean arterial blood pressure was monitored for 250 minutes using indwelling cannulae in the tail arteries. […] The maximal blood pressure reduction was approximately 25 mmHg.

[3] = biological target: T1, DBH (Homo sapiens, UniProt P09172); settings: as reported by Runti et al.; cited from earlier work
T1 sequence (P09172 1-617): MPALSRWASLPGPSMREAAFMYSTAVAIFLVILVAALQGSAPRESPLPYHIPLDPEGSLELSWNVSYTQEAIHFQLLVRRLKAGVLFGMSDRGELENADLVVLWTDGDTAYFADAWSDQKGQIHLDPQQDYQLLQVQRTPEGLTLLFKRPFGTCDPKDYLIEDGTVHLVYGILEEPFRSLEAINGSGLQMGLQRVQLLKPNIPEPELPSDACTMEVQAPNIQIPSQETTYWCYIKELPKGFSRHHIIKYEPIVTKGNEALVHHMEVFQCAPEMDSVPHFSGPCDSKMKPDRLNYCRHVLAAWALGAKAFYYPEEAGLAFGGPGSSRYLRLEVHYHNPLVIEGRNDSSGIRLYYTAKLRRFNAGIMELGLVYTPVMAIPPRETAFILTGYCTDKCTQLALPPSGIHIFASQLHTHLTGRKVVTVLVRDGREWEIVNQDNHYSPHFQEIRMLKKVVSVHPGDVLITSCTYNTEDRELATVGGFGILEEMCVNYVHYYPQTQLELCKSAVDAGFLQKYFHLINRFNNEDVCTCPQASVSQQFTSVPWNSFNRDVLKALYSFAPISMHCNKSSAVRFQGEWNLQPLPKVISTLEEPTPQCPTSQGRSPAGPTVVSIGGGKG

Compound: CCCCc1ccc(C(=O)O)nc1 [Fusaric acid]
- toxic effects [1]: hepatotoxic

Compound: Sc1nnc(-c2ccncc2)n1Cc1ccccc1 [3-Mercapto-4-benzyl-5-(4-pyridyl)-1,2,4-triazole]
- blood pressure compared to vehicle-treated controls ([2]; between 80 and 240 minutes following treatment): significant blood pressure reductions
- maximal blood pressure reduction ([2]; mean arterial blood pressure monitored for 250 minutes, compared to vehicle-treated controls): approximately 25 mmHg

Compound: phenylpicolinic acid
- inhibitory activity relative to fusaric acid [3]: twice the inhibitory activity of fusaric acid
